Tested on: bed bugs
Experiment: Petri dish choice test, treated vs. untreated paper discs: repellency (avoidance) of bed bugs
Format: in vivo, Cimex species
Settings: 1 ml acetone solution on paper disc, distribution at 2 hours post-treatment, 5 replicates of 10 bed bugs
Experimental: Two semicircle discs of paper, one treated (1 ml of acetone solution of each compound was applied to each disc) and one untreated (1 ml of acetone only), were placed in the lid of a Petri dish. […] Five replicates of 10 bed bugs were released into the centers of the lids and were thus presented with a choice of treated vs. untreated substrate (or untreated vs. untreated in the control arenas). The distribution of the bed bugs was recorded at 2 hours post-treatment. Paired t-tests were conducted for each treatment to ascertain whether or not there was a statistically significant difference in the numbers of bed bugs on the treated vs. untreated discs.

Compound | Repellency/Avoidance (0.2% compound) | also measured
CCN(CC)C(=O)c1cccc(C)c1 [DEET, N,N-Diethyl-m-toluamide, reference compound] | 74% | Repellency/Avoidance (0.09% compound): 66%
CCCCCC1C(=O)CCC1CC(=O)O (stereo not shown) [Dihydrojasmonic Acid] | 78% | –
CCCCCC1C(O)CCC1CC(=O)OC (stereo not shown) [Methyl dihydrojasmolate] | 82% | Repellency/Avoidance (0.15% compound): 58%
CCCCCC1C(CC(=O)OC)CCC1(OC)OC (stereo not shown) [Methyl dihydrojasmonate dimethyl acetal] | 90% | –
CC1CCC(C(C)(C)O)C(O)C1 (stereo not shown) [Para Menthane-3,8-diol (PMD), Para Menthane-3,8-diol, reference compound] | 70% | Repellency/Avoidance (0.15% compound): 42%
CCCCCC1C(O)CCC1CC(=O)OCC=C(C)C (stereo not shown) [Prenyl dihydrojasmolate] | 48% | –
CCCCCCCCCC1(C)CCC(=O)O1 (stereo not shown) [gamma Methyl tridecalactone] | 72% | –
CCCCCCCCC1CCC(=O)O1 (stereo not shown) [gamma-Dodecalactone] | 82% | –
CCCCCCCCCCCCCC1CCC(=O)O1 (stereo not shown) [gamma-Heptadecalactone] | – | Repellency/Avoidance (2% compound): 68%
CCCCCCCCCCCC1CCC(=O)O1 (stereo not shown) [gamma-Pentadecalactone] | – | Repellency/Avoidance (1% compound): 92%
CCCCCCCCCC1CCC(=O)O1 (stereo not shown) [gamma-Tridecalactone] | – | Repellency/Avoidance (0.5% compound): 86%; Repellency/Avoidance (1% compound): 96%
Dihydrojasmolactone | 84% | –
Methyl apritol | 88% | Repellency/Avoidance (0.15% compound): 74%
Methyl dihydrojasmonate amide | – | Repellency/Avoidance (concentration not given): 28%

From patent US11098003B2, “Control and repellency of bed bugs” (BEDOUKIAN RESEARCH, INC., priority 2012, dated 2021)
